# Results taken from patent US5486531A, “Hydroxymethylfurazancarboxylic acid derivatives” (Cassella Aktiengesellschaft, priority 1993, dated 1996).
# Counter-ions that a name gives are not always drawn.
# System: spiral strips of the arteria pulmonalis of the guinea pig
# Test: relaxing effect on spiral strips of guinea pig arteria pulmonalis, contraction elicited by CaCl2 after depolarization with potassium (modified Godfraind and Kaba / Schuman)
# Format: cell-based
# Conditions: Cavia porcellus, read-out: IC50 (concentration of the test substance which inhibits the contraction by 50%)
# Method: For this, spiral strips of the arteria pulmonalis of the guinea pig are depolarized,following equilibration in calcium-free Tyrode solution, with 40 mmol/l potassium. Addition of 0.5 mmol/l CaCl2 then elicits a contraction. The relaxing effect of the test substance is determined by adding it cummulatively.
row,SMILES,IC50
1,"O=[N+]([O-])O[C@@H]1CO[C@H]2[C@@H]1OC[C@@H]2O [Isosorbide 5-mononitrate, isosorbide 5-mononitrate, reference compound]",> 100 µM

# Same assay, conditions: Cavia porcellus; depolarized with 40 mmol/l potassium, contraction by 0.5 mmol/l CaCl2; cumulative addition; average value from 4 to 6 vessel strips; read-out: IC50 (concentration of the test substance which inhibits the contraction by 50%)
row,SMILES,IC50
1,"CC(C)NC(=O)c1c(CO)no[n+]1[O-] [Compound 1 I, 4-Hydroxymethyl-N-isopropyl-2-oxyfurazan-3-carboxamide]",8 µM
2,"NC(=O)c1c(CO)no[n+]1[O-] [Compound 3 I, 4-Hydroxymethyl-2-oxyfurazan-3-carboxamide]",12 µM
3,"CNC(=O)c1c(CO)no[n+]1[O-] [Example 4 I, 4-Hydroxymethyl-N-methyl-2-oxyfurazan-3-carboxamide]",7.3 µM
4,"O=C(NCc1cccnc1)c1c(CO)no[n+]1[O-] [Example 8, 4-Hydroxymethyl-N-(3-pyridylmethyl)-2-oxyfurazan-3-carboxamide hydrochloride]",8 µM

# Results, then the compound that gave them:
row,IC50,SMILES
1,8 µM,"COCCNC(=O)c1c(CO)no[n+]1[O-] [Example 18, 4-Hydroxymethyl-N-(2-methoxyethyl)-2-oxyfurazan-3-carboxamide]"
2,15 µM,"C[C@H](NC(=O)c1c(CO)no[n+]1[O-])c1ccccc1 [Example 23, 4-Hydroxymethyl-N-((S)-1-phenylethyl)-2-oxyfurazan-3-carboxamide]"
3,2 µM,"C[C@@H](NC(=O)c1c(CO)no[n+]1[O-])c1ccccc1 [Example 24, 4-Hydroxymethyl-N-((R)-1-phenylethyl)-2-oxyfurazan-3-carboxamide]"
4,11 µM,"NS(=O)(=O)c1ccc(CCNC(=O)c2c(CO)no[n+]2[O-])cc1 [Example 26, 4-Hydroxymethyl-N-[2-(4-sulphamoylphenyl)-ethyl]-2-oxyfurazan-3-carboxamid]"
5,300 µM,"CCOC(=O)[N-]c1cn(N2CCOCC2)n[o+]1 [Molsidomine, molsidomine, reference compound]"
